From ChEMBL document CHEMBL2331434, “Jatropholane-type diterpenes from Euphorbia sikkimensis” (J Nat Prod, 2013) come the findings set out here.

For test [1], the species on record is Danio rerio. The test is described as follows: Antiangiogenic activity against wild AB-type transgenic zebrafish embryo expressing green fluorescent protein-labeled VEGFR2 assessed as inhibition of growth of intersegmental vessels treated at 24 hrs post fertilization measured after 48 hrs by alkaline phosphatase staining. It is filed as functional, organism-based.

The species named for test [2] is Danio rerio. The test is described as follows: Antiangiogenic activity against wild AB-type transgenic zebrafish embryo expressing green fluorescent protein-labeled VEGFR2 assessed as inhibition of growth of intersegmental vessels at 33.6 uM treated at 24 hrs post fertilization measured after 48 hrs by alkaline phosphatase staining. It is filed as functional.
A further test concerns A549. The test is described as follows: Cytotoxicity against human A549 cells assessed as inhibition of cell viability after 48 hrs by MTT assay. It is filed as functional, cell-based. To be noted: A549, 48 h.

As for `C=C1CC[C@H]2[C@@H]([C@@H]3[C@@H]1C1=C(C[C@@H](C)C1=O)C(=O)[C@H]3C)C2(C)C` [SIKKIMENOID B], the IC50 was 43 µM in the test filed under Danio rerio [1] and greater than 10 µM in the test on A549. Further, the “growth inhibition (GI)” value in the test listed under Danio rerio [1] is “Dose-dependent effect”; in the test listed under Danio rerio [2], 41.1%.
Regarding `C=C1CC[C@H]2[C@@H]([C@@H]3[C@@H]1C1=C(C[C@](C)(O)C1=O)C(=O)[C@H]3C)C2(C)C` [SIKKIMENOID C], in the test on A549, the IC50 is greater than 10 µM.
The same measure, in the same setting: to `C=C1CC[C@H]2[C@@H]([C@@H]3[C@@H]1C1=C(C[C@H](C)C1=O)C(=O)[C@H]3C)C2(C)C` [SIKKIMENOID A] belongs greater than 10 µM; to `C=C1CC[C@H]2[C@@H]([C@@H]3[C@@H]1C1=C(C[C@@](C)(O)C1=O)C(=O)[C@H]3C)C2(C)C` [SIKKIMENOID D], greater than 10 µM.
Turning to `Clc1ccc(Nc2nnc(Cc3ccncc3)c3ccccc23)cc1` [VATALANIB], the IC50 in the test listed under Danio rerio [1] turned out to be 0.23 µM.

In general, IC50 refers to the concentration at which inhibition is half-maximal.
